Assay results: publication PMC11474028, “Lipopeptide antibiotics disrupt interactions of undecaprenyl phosphate with UptA” (Proceedings of the National Academy of Sciences of the …, 2024)
“Also recorded” adds a separate entry of the source.

Experiments:
UptA = UptA (Bacillus subtilis, UniProt O31823); experiment: Native MS of antibiotic binding to UptA; conditions: 2.5 µM UptA, 10 µM C55-P, antibiotic up to 100 µM (polymyxins 100 µM), 0.05% LDAO, 200 mM ammonium acetate, 75 V
Experimental: We next investigate how UptA and its complex with C55-P interact with a range of cell-wall targeting antibiotics including the lipopeptides daptomycin and amphomycin. […] We investigated whether daptomycin affects C55-P binding to UptA by recording spectra for solutions containing 2.5 µM UptA, 10 µM C55-P, and different concentrations of daptomycin.
(§1) Amphomycin and derivatives are known to kill bacteria by forming complexes with free C55-P ([46]), however, whether or not this involves a direct interaction with a protein cellular target is not known. We therefore investigated how amphomycin affects the UptA:C55-P complex. We recorded spectra for solutions containing 2.5 µM UptA, 10 µM C55-P and then equilibrated aliquots with increasing concentrations of amphomycin.
The amphiphilic nature of daptomycin and amphomycin raises the possibility that these lipopeptide antibiotics may promiscuously bind to UptA in a nonspecific manner. We probe this possibility by recording spectra for UptA:C55-P solutions in the presence of 100 µM polymyxin B and 100 µM polymyxin E. These polymyxins are membrane-disrupting lipopeptides that target the outer membrane lipopolysaccharides in Gram-negative bacteria ([47]) but without a known affinity for C55-P or UptA.
To this end, we prepared UptA:C55-P mixtures and then equilibrated aliquots with bacitracin and vancomycin.
(§2) Detailed experimental procedures are provided in SI Appendix. Briefly, UptA (wild type and mutants) was expressed in E. coli C43(DE3) cells (Lucigen) with GFP fusion on the C-terminus and solubilized from the membrane fraction by n-dodecyl-β-D-maltopyranoside (DDM). After purification by affinity chromatography, the GFP was cleaved by TEV protease and removed, and UptA was further purified by size-exclusion chromatography in a buffer containing 20 mM Tris-HCl (pH 8.0), 200 mM NaCl, 0.02% DDM. Before measurements, proteins were buffer-exchanged into 0.05% LDAO, 200 mM ammonium acetate at the desired pH using a centrifugal buffer exchange device (Micro Bio-Spin 6, Bio-Rad). Stock solutions of lipids were prepared from chloroform/methanol solution by evaporating aliquots of known volume in a SpeedVac. After drying, the lipid films were weighed and resuspended to a final concentration of 0.5 mM in 200 mM ammonium acetate and 0.05% LDAO by vertexing. Stock solutions of 0.5 mM amphomycin, aspartocin D, daptomycin, polymyxin B, polymyxin E, and bacitracin were made in the same buffer. All experiments were repeated three times from newly prepared stock solutions. Native mass spectrometry was performed on a Q-Exactive hybrid quadrupole-Orbitrap mass spectrometer (Thermo Fisher Scientific, Bremen, Germany), and lipid identification was performed on an Orbitrap Eclipse Tribrid mass spectrometer (Thermo). […]

UptA:C55-P complex = experiment: Native MS of UptA:C55-P complex in the presence of antibiotics; assay type: binding, Bacillus subtilis; conditions: 2.5 µM UptA, 10 µM C55-P; for effect of antibiotic on UptA:C55-P complex (in words): 0 to 100 µM antibiotic, 75 V, mean of three independent replicates
Experimental: as §1
(A) Mass spectra (6+ charge state) for solutions containing 2.5 µM UptA and 10 µM C55-P incubated with 0 to 100 µM amphomycin. (B) Relative intensity of C55-P bound to UptA in the presence of amphomycin and daptomycin. The bar represents the mean of three independent replicates shown as data points and error bars are SD. […] (C) Fraction of C55-P bound to UptA in the presence of cell wall targeting antibiotics. Each sample contains 2.5 µM UptA, 10 µM C55-P and 100 µM of indicated antibiotic, and spectra were acquired using the same instrument settings and collisional activation of 75 V. The bar represents the mean of three independent replicates shown as data points, and the error bar represents SD. […]
as §2

[1] = test system: B. subtilis strains bearing R112 and R118 mutations on UptA; conditions: cited from earlier work
Source text: Conserved arginine residues in the putative membrane reentrant loops of E. coli DedA proteins YqjA (R130) and YghB (R136) are important for the cellular role of these proteins ([36]). […] How these residues impact substrate interactions, however, is not known. […] Despite the combined cellular pool of C55-PP and C55-P being limited to ~1.5 × 10^5 molecules per cell ([56]), they mediate the transport of glycan-bearing components of the cell wall peptidoglycan, teichoic acid, and capsular polysaccharid ...

[2] = ref 46 (ref 23, 46, 60, 61); cited from earlier work
Source text: To this end, we prepared UptA:C55-P mixtures and then equilibrated aliquots with bacitracin and vancomycin. […] In line with the specificity of bacitracin for C55-PP rather than C55-P, this antibiotic modestly ...

UptA, sequence (O31823 whole entry): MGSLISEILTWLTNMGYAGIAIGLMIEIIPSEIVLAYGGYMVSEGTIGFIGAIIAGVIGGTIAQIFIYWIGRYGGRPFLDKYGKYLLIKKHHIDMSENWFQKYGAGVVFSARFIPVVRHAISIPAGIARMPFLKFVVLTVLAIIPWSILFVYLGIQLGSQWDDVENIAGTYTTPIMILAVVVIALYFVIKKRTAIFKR

amphomycin
binding of antibiotic to UptA (in words) (UptA): peaks consistent with amphomycin binding to UptA; also recorded: bind to UptA with higher affinity than other cell-wall targeting antimicrobial peptides such as bacitracin and vancomycin | effect of antibiotic on UptA:C55-P complex (in words) (UptA:C55-P complex): peak intensities of the UptA:C55-P complex reduce with respect to an increase in the concentration of amphomycin; also recorded: induce dissociation of UptA:C55-P complexes; also recorded: bind directly to UptA and induce dissociation of the UptA:C55-P complex; also recorded: can directly inhibit UptA function by out-competing the substrate for the protein binding | effect of antibiotic on UptA:C55-P complex (in words) (UptA:C55-P complex; listed as Amphomycin): destabilizes the UptA:C55-P complex and sequesters C55-P | UptA:C55-P complex remaining at 10-fold molar excess of antibiotic (in words) (UptA:C55-P complex; 10-fold molar excess of amphomycin): little-to-no UptA:C55-P complexes remained | susceptibility of B. subtilis cells with UptA R112 and R118 mutations (in words) [1]: more susceptible to inhibition by amphomycin | complex formation with free C55-P (in words) [2]: known propensity to form complexes with free C55-P molecules
